Measured values from patent US8354388B2, “Inhibitors of MRP4 for the treatment of vascular disorders” (INSERM (Institut National de la Sante et de la Recherche …, priority 2007, dated 2013).
“Also recorded” adds a separate entry of the source. Read-outs that look alike come from different tables or passages of the source. Blank lines part the entries; values can stand above or below the molecule they belong to.

Tests used:
[1] = system: human coronary artery smooth muscle cells (hCASMC); experiment: BrdU incorporation proliferation assay in hCASMC; conditions: for dose-effect on hCASMC proliferation: increasing doses; for hCASMC proliferation, relative increase compared to 0.1% S: without inhibitors 240±15.8%; for inhibitory effect on hCASMC proliferation under inhibition of PKA by Ad-PKI: infection with Ad-PKI
Procedure: Cell proliferation was measured 72 hours after plating by BrdU incorporation and expressed as relative increase compared to growth supplement starved (0.1% S) cells. […] (b) Dose-effect of MRP and PDE inhibitors (DIP: Dipyridamole, IBMX, MK571 and NBMPR) on hCASMC proliferation. n=3 experiments in triplicate. * p≦0.05, ** p≦0.01, *** p≦0.001
Human smooth muscle cells were cultured in 96-wells tissue culture plates for 3 days in Smooth Muscle Cell Basal Medium 2 supplemented with 5% S. Medium containing 0.1% S was used for the growth arrest control. Cells were incubated with pharmacological agents or siRNA for 72 h in medium containing 5% S. BrdU was added for the last 16 hours. The cell culture plates were washed, and a colorimetric BrdU cell proliferation assay was performed according to the manufacturer's instructions (Roche).

[2] = system: intracellular cAMP in hCASMC; experiment: FRET imaging of cAMP with Epac2-camps in hCASMC; assay type: cell-based; conditions: Homo sapiens, read-out: EC50, dose providing 50% of maximal cAMP formation
Procedure: hCASMCs were transfected with scramble siRNA or the siRNA against MRP4 (each at 50 nM) in supplement-free medium over a period of 6 h, before the medium was replaced with supplement-containing medium. 24 h after the transfection, cells were infected with an adenovirus encoding the FRET-based cAMP sensor Epac2-camps. This FRET-based cAMP sensor contains a single cAMP binding domain of Epac2 fused to YFP and CFP fluorescent proteins. Upon addition of forskolin, increasing intra-cellular cAMP concentrations lead to a reversible conformational change of Epac2-camps which results in a decrease of FRET between CFP and YFP, leading to an increase in the CFP/YFP ratio^13. Imaging experiments were performed at 72 h and at room temperature. Cells were maintained in a K^+-Ringer solution containing (in mmol/L): NaCl 121.6, KCl 5.4, MgCl2 1.8; CaCl2 1.8; NaHCO3 4, NaH2PO4 0.8, D-glucose 5, sodium pyruvate 5, HEPES 10, adjusted to pH 7.4. Images were captured every 5 s using the 40× oil immersion objective of a Nikon TE 300 inverted microscope connected to a software-controlled (Metafluor, Molecular Devices, Sunnyvale, Calif., USA) cooled charge coupled (CCD) camera (Sensicam PE; PCO, Kelheim, Germany). […] Average fluorescence intensity was measured in a region of interest comprising the entire cell. […]
All quantitative data are presented as means ±SD. […]

MRP4 = biological target: T1, MRP4 (Homo sapiens, UniProt O15439); conditions: literature reference 41; cited from earlier work
T1 sequence (O15439 1-1325): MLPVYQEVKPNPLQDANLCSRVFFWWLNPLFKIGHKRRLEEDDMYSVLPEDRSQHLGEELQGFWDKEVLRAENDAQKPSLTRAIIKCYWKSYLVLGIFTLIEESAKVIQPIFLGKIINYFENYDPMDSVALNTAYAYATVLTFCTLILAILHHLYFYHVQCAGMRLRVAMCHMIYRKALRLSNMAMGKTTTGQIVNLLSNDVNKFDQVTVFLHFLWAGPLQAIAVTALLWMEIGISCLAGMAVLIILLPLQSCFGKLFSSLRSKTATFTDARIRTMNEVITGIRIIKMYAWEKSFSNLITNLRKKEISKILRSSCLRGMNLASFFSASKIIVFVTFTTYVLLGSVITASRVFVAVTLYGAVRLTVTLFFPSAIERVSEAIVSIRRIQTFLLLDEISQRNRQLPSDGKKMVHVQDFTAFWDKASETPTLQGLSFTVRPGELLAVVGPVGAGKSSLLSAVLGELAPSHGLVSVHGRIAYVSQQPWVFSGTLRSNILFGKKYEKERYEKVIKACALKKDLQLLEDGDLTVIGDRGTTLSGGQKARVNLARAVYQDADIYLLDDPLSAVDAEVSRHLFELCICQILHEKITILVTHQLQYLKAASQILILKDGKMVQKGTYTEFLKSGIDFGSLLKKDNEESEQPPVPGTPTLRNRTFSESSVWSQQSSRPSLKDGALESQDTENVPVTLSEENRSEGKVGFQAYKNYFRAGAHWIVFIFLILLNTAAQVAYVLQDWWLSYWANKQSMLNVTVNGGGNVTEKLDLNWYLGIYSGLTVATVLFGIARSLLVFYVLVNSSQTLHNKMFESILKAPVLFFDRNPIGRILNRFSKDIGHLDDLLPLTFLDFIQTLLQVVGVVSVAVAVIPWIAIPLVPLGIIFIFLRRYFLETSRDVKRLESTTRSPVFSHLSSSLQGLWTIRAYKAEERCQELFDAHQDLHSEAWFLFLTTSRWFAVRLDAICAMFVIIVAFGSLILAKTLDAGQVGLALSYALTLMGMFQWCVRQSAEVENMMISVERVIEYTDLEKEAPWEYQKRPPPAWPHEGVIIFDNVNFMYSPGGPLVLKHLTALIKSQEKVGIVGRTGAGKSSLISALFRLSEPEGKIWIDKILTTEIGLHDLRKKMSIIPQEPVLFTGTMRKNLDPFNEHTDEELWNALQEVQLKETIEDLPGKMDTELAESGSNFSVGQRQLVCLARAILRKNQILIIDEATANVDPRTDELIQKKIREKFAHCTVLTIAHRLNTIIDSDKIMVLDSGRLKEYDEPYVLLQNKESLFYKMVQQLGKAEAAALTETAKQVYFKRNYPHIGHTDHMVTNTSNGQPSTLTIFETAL

[3] = system: human pulmonary artery smooth muscle cells (hPASMC); experiment: BrdU incorporation proliferation assay in hPASMC; assay type: cell-based
From the text: FIG. 10. Inhibition of hPASMC (human pulmonary artery smooth musclulare cells) proliferation with MRP4 siRNA.

[4] = system: cyclic nucleotide efflux from hCASMCs; experiment: cAMP and cGMP competitive enzyme immunoassay, intra-/extra-cellular ratio in hCASMC; assay type: cell-based, human; conditions: hCASMC transfected 72 h
Procedure: Cyclic GMP and AMP were measured in cell culture supernates and in cell lysates in hCASMC transfected for 72 h either with the scramble siRNA or the MRP4 siRNA by specific competitive enzyme immunoassay as described by the manufacturer (R&D systems).

[5] = system: phosphorylated CREB (pCREB); experiment: Phosphorylated CREB western blot in proliferating hCASMC; assay type: cell-based, human; conditions: p=0.003
Procedure: Total cell lysates were prepared according to standard protocol (Upstate Biotechnology). Membrane proteins were isolated by scraping the cells in buffer A (5 mmol/L Tris/HCl, 250 mmol/L sucrose, and 0.1 mmol/L ethylenediaminetetraacetic acid supplemented with protease inhibitors cocktail (Sigma). The lysate was centrifuged at 10000 g for 10 min at 4° C. and the supernatant further centrifuged at 100000 g for 1 h at 4° C. The resulting pellet was resuspended in buffer A. Proteins (50 μg) were separated by SDS 12% PAGE, blotted on Hybond-C membrane (Amersham Biosciences) and incubated with various antibodies. The anti-MRP4 antibody was previously described^17. Other antibodies were: anti-MRP5 antibody (1:250; Santa-Cruz Biotechnology), anti-Caveolin1 (1:5000, Abcam), anti-cyclinD1 (1:500, BD Biosciences), anti-PP2B (calcineurin) (1:250; BD Biosciences), anti-CREB (1:1000; Upstate Biotechnology), anti-phosphorylated CREB (1:1000; Upstate Biotechnology). Immunoreactive proteins were visualized using an ECL® (enhanced chemiluminescence) detection system (Amersham Biosciences). Optical Density was quantified using ImageJ software (National Institutes of Health, Bethesda, Md.). […]

[6] = system: cAMP responsive element CRE; experiment: CRE-luciferase reporter gene assay in hCASMC; assay type: cell-based, human; conditions: 5% S, percent of control
Procedure: Cells were co-transfected with the siRNA (50 nM) and the CRE-luciferase reporter gene plasmid (Stratagene) by electroporation using amaxa® Nucleofector technology according to manufacturer's instructions. After, a period of 6 h, the medium was replaced with supplement containing medium. Cells were grown in the presence of 5% S for 66 h. The results are means for three independent experiments performed in triplicate. The luciferase activity was measured by using “the luciferase assay kit” (Promega). It was expressed as percent of control in relative luciferase units.

hCASMC = experiment: TUNEL staining for apoptosis in hCASMC; assay type: cell-based, human; conditions: siRNA transfected 72 h
Procedure: MRP4 or scramble siRNA were transfected in hCASMC for 72 h and the apoptosis was analyzed by TUNEL staining (ApopTag Red, Serologicals Corp). For the positive control, cells were treated with staurosporin (10 μM) for 1 h.

human MRP4 = experiment: MRP4 silencing in hCASMC (quantitative real-time PCR, western blot); assay type: cell-based; conditions: siRNA 50 nM, 72 hours after transfection
Procedure: Total RNA was prepared using RNeasy Mini Kit […] and 1 μg was reverse-transcribed using a standard protocol. One tenth of the resulting cDNA was amplified by 35 cycles of 30 s at 94° C., 30 s at Tm (60° C. for MRP4, MRP5 and RPL32) and 30 s at 72° C., followed by a final amplification at 72° C. for 10 min using 1 unit of BIOTAQ DNA Polymerase (Bioline) and 200 pmol each of the following primers: […]
Gene specific primers were used to amplify mRNA by qPCR on a Mx4000 apparatus (Stratagene) using the Qiagen SYBR Green master mix. The specificity of each primer set was monitored by analysis of the dissociation curve. A sample volume of 25 μl was used for each assay, which contained a 1× final concentration of SYBR green PCR master mix, 400 nM gene specific primers, and 5 μl template.
Total cell lysates were prepared according to standard protocol (Upstate Biotechnology). […] Optical Density was quantified using ImageJ software (National Institutes of Health, Bethesda, Md.). […]

[7] = 5% S, 72 h, maximal dose used (MK571 37.5 μM, NBMPR 100 μM)

Molecule: CN(C)C(=O)CCSC(SCCC(=O)O)c1cccc(/C=C/c2ccc3ccc(Cl)cc3n2)c1 (stereo not drawn) [MK571]
dose-effect on hCASMC proliferation ([1]; 5% S, 72 h): dose-dependent inhibition
hCASMC proliferation, relative increase compared to 0.1% S [1, 7]: 153±11%
inhibitory effect on hCASMC proliferation under inhibition of PKA by Ad-PKI ([1]; MK571 37.5 μM, NMBPR 100 μM): also reversed

Molecule: O=[N+]([O-])c1ccc(CSc2ncnc3c2ncn3[C@@H]2O[C@H](CO)[C@@H](O)[C@H]2O)cc1 [NBMPR]
dose-effect on hCASMC proliferation ([1]; 5% S, 72 h): dose-dependent inhibition
hCASMC proliferation, relative increase compared to 0.1% S [1, 7]: 140±15%
inhibitory effect on hCASMC proliferation under inhibition of PKA by Ad-PKI ([1]; MK571 37.5 μM, NMBPR 100 μM): also reversed

EC50 ([2]; MRP4 siRNA transfected hCASMC): 3 ± 0.6 µM
EC50 ([2]; scramble siRNA transfected hCASMC): 13.3 ± 2.2 µM
Molecule: C=C[C@@]1(C)CC(=O)[C@]2(O)[C@@]3(C)[C@@H](O)CCC(C)(C)[C@@H]3[C@H](O)[C@H](OC(C)=O)[C@@]2(C)O1 [forskolin]

Molecule: CC(C)Cn1c(=O)n(C)c(=O)c2[nH]cnc21 [IBMX]
hCASMC proliferation, relative increase compared to 0.1% S ([1]; 5% S, 72 h, IBMX 100 μM): 170±12%
dose-effect on hCASMC proliferation ([1]; 5% S, 72 h): dose-dependent inhibition

Molecule: CCCc1nn(C)c2c(=O)[nH]c(-c3cc(S(=O)(=O)N4CCN(C)CC4)ccc3OCC)nc12 [Sildenafil]
reported MRP4 inhibition (MRP4): MRP4 inhibitor

Molecule: MRP4 siRNA: siRNA against human MRP4, sense 5′-CAGUGUUCUUACACUUCCUTT-3′ (SEQ ID NO:7), anti-sense 5′-AGGAAGUGUAAGAACACUGTT-3′ (SEQ ID NO:8) (chemistry not given here)
hPASMC proliferation compared to scrambled siRNA [3]: significant decrease; also recorded: inhibits
cAMP intra-cellular/extra-cellular ratio compared to scramble siRNA [4]: 289±12.5%
cGMP intra-cellular/extra-cellular ratio compared to scramble siRNA [4]: 230±5.5%
increase in level of pCREB compared to scramble siRNA [5]: 329±15%
CRE-luciferase activity compared to scramble siRNA [6]: 553±25%
apoptosis in hCASMC (hCASMC): not associated with apoptosis
inhibitory effect on hCASMC proliferation under inhibition of PKG by KT5823 ([1]; KT5823, MK571 37.5 μM, NMBPR 100 μM): not by the inhibition of cGMP-dependent protein kinase G
inhibitory effect on hCASMC proliferation under inhibition of PKA by Ad-PKI ([1]; MK571 37.5 μM, NMBPR 100 μM): completely reversed
supplement mix-induced hCASMC proliferation, relative increase compared to 0.1% S ([1]; siRNA 50 nM, 72 h, 5% S, scramble siRNA 313±35%): 183±27%
decrease in MRP4 mRNA compared to scramble siRNA (human MRP4): 75±1%
decrease in MRP4 protein level compared to scramble siRNA (human MRP4; western blot): 74±6.8%

Molecule: OCCN(CCO)c1nc(N2CCCCC2)c2nc(N(CCO)CCO)nc(N3CCCCC3)c2n1 [dipyridamole]
reduction of hCASMC proliferation compared to MK571 or NBMPR ([1]; 5% S, 72 h): no significant difference
dose-effect on hCASMC proliferation ([1]; 5% S, 72 h): dose-dependent inhibition
